Holding throughout (test): NCI-60 cell line screen, 48 h
The test system of experiment [1] is 786-0.
Experiment [2] concerns A549.
Experiment [3] has as its system ACHN.
In experiment [4] the test system is COLO 205.
Experiment [5] relates to HCT-116.
The test system of experiment [6] is HCT-15.
The subject of experiment [7] is HL-60.
Experiment [8] has as its system IGROV-1.
In experiment [9] the test system is K562.
Experiment [10] has as its system M14.
The test system of experiment [11] is NCI-H226.
Experiment [12] deals with OVCAR-3.
Experiment [13] concerns OVCAR-5.
Experiment [14] concerns OVCAR-8.
Experiment [15] deals with SK-MEL-5.

The structures appear in SMILES notation.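 Method: 48-hour compound exposure of cells in 96-well plates, five concentrations, linear interpolation of endpoints. The concentration for 50% growth inhibition is given as GI50.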 Activity calls are given as the source filed them. No stated cut-off is given here; in the data, active = GI50 up to about 1.1 µM and inactive = higher.

For the compound `CN1CCC(SC2Cc3cc(Cl)ccc3Sc3ccccc32)CC1` (configuration not stated), the GI50 in experiment [1] was 13 µM (inactive); in [2], 15.3 µM (inactive); in experiment [3], 14.6 µM (inactive); in experiment [4], 12.9 µM (inactive); in experiment [5] it was 10.4 µM (inactive); in [6] it was 15.7 µM. Also, the GI50 was 4.15 µM (inactive) in experiment [7]; 14.7 µM (inactive) in experiment [8]; 5.04 µM (inactive) in experiment [9]; 4 µM (inactive) in [10]; 15.1 µM (inactive) in experiment [11]; 13.6 µM (inactive) in experiment [12]. Also, the figures for the GI50 in experiment [13], in [14] and in experiment [15] were 16.7 µM (inactive), 17.3 µM (inactive) and 13.5 µM (inactive), respectively.
`N#CCN1C(=O)c2cccc3cc([N+](=O)[O-])cc(c23)C1=O`: the GI50 was 60.3 µM (inactive) in experiment [1]; 40.1 µM (inactive) in [2]; 42.5 µM (inactive) in [3]; 35.3 µM (inactive) in experiment [4]; 32.2 µM (inactive) in experiment [5]; 28 µM in [6]. Further, the GI50 in experiment [7] is 23.8 µM (inactive); in experiment [8], 42.9 µM (inactive); in [9], 27.5 µM (inactive); in [10], 37.3 µM (inactive); in experiment [11], 17.3 µM (inactive); in experiment [12], 29.4 µM (inactive). For the same compound, the results for the GI50 in experiment [13], in experiment [14] and in [15] were 31.3 µM (inactive), 38.9 µM (inactive) and 43.1 µM (inactive), respectively.
As to `CN(C)/C=N/c1nc2c(ncn2C2OC(CO)C(O)C2O)c(=O)[nH]1` (configuration not stated), the GI50 is > 100 µM (inactive) in experiment [1]; > 100 µM (inactive) in [2]; > 100 µM (inactive) in experiment [3]; > 100 µM (inactive) in [4]; > 100 µM (inactive) in [5]; over 100 µM in [6]. Also, the GI50 in experiment [7], in experiment [8], in [9], in experiment [10], in experiment [11] and in experiment [12] was > 100 µM (inactive) each time. Besides, the GI50 in [13], in experiment [14] and in experiment [15] was > 100 µM (inactive) each time.
As to `Cc1ccc(S(=O)(=O)NCCCN(CCCNS(=O)(=O)c2ccc(C)cc2)S(=O)(=O)c2ccc(C)cc2)cc1`, the GI50 in [1] is > 100 µM (inactive); in [2], > 100 µM (inactive); in experiment [3], > 100 µM (inactive); in experiment [4], > 100 µM (inactive); in experiment [5], > 100 µM (inactive); in [6], over 100 µM. For the same compound, the GI50 in [7], in [8], in experiment [9], in experiment [10], in experiment [11] and in [12] was > 100 µM (inactive) throughout. Besides, the GI50 in experiment [14] is > 100 µM (inactive).
Take `Cc1nc(N)c(-c2ccccc2)s1`: the GI50 in experiment [1] was 77.6 µM (inactive); in [2], 68.9 µM (inactive); in [3], > 100 µM (inactive); in experiment [4] it was > 47 µM (inactive); in [5] it was 31.7 µM (inactive); in experiment [6] it was 33.8 µM. In addition, the GI50 in [7] is 28.6 µM (inactive); in experiment [8], > 78.2 µM (inactive); in experiment [9] it was > 70.5 µM (inactive); in experiment [10], 40.9 µM (inactive); in experiment [11], > 100 µM (inactive); in experiment [12], > 92 µM (inactive). Also, the GI50 in [13] is > 100 µM (inactive); in experiment [14] it was > 76.7 µM (inactive); in [15] it was 43.5 µM (inactive).
In the case of `N#CC1(Cc2ccc(N)cc2)c2ccccc2C=CN1C(=O)c1ccccc1` (configuration not stated), the GI50 in [1] is 50.2 µM (inactive); in [2], 35.7 µM (inactive); in experiment [3] it was 31.7 µM (inactive); in [4], 27.3 µM (inactive); in experiment [5], 54 µM (inactive); in [7], 15.8 µM (inactive). Also, the GI50 was 77.6 µM (inactive) in experiment [8]; 26.5 µM (inactive) in experiment [9]; 25.6 µM (inactive) in experiment [10]; 39.2 µM (inactive) in experiment [11]; 43.9 µM (inactive) in experiment [12]; > 100 µM (inactive) in experiment [13]. Further, the GI50 in experiment [14] is 40.6 µM (inactive); in experiment [15], 21.8 µM (inactive).
On to `Cc1cc(C)c(-c2noc(-c3ccc(Cl)cc3)c2C2=NCCN2)c(C)c1`, for which the GI50 in experiment [1] was 15.3 µM (inactive); in [2] it was 32.4 µM (inactive); in [3] it was 23.1 µM (inactive); in [4] it was 16.4 µM (inactive); in [5], 12.1 µM (inactive); in experiment [6], 22.2 µM. Besides, the GI50 in experiment [7] is 14.4 µM (inactive); in experiment [8], 22.2 µM (inactive); in [9] it was 14.8 µM (inactive); in experiment [10], 12.2 µM (inactive); in experiment [11] it was 23.8 µM (inactive); in experiment [12], 21 µM (inactive). For the same compound, the values for the GI50 in experiment [13], in experiment [14] and in experiment [15] were 32.1 µM (inactive), > 10 µM (inactive) and 11.7 µM (inactive), respectively.
As for `CCCN(CCC)C(=O)C(=O)c1c(N)[nH]n(-c2ccccc2)c1=O`, the GI50 in experiment [1] is > 100 µM (inactive); in [2], > 100 µM (inactive); in experiment [3], > 100 µM (inactive); in experiment [4] it was > 100 µM (inactive); in experiment [5], > 100 µM (inactive); in experiment [6], over 100 µM. The GI50 is 80.9 µM (inactive) in [7]; > 100 µM (inactive) in [8]; 43.5 µM (inactive) in experiment [9]; > 100 µM (inactive) in experiment [10]; > 100 µM (inactive) in [11]; > 100 µM (inactive) in experiment [12]. Further, the GI50 in experiment [13], in experiment [14] and in experiment [15] was > 100 µM (inactive) throughout.
Regarding `CCOC(=O)C(=O)Nc1ccc(C)cc1C`, the GI50 is > 100 µM (inactive) in [1]; > 100 µM (inactive) in experiment [2]; > 100 µM (inactive) in [3]; > 100 µM (inactive) in [4]; > 100 µM (inactive) in experiment [5]; over 100 µM in [6]. The GI50 in experiment [7], in [8], in experiment [9], in [10], in [11] and in experiment [12] was > 100 µM (inactive) in each case. The GI50 in experiment [13], in experiment [14] and in experiment [15] was > 100 µM (inactive) throughout.
For the compound `CC(C)(C)C1CCC(O)(c2ccccc2)CC1` (configuration not stated), the GI50 in experiment [1] is 63.2 µM (inactive); in experiment [2], > 100 µM (inactive); in experiment [3] it was > 100 µM (inactive); in [4] it was > 100 µM (inactive); in experiment [5], 96.2 µM (inactive); in experiment [6], 94.2 µM. Besides, the GI50 in [7] was 27.4 µM (inactive); in [8], > 100 µM (inactive); in experiment [9], 47.6 µM (inactive); in [10] it was 71.8 µM (inactive); in experiment [11] it was > 100 µM (inactive); in experiment [12], 70.1 µM (inactive). The GI50 in experiment [13] was > 100 µM (inactive); in experiment [14], 88.3 µM (inactive); in experiment [15], 38.3 µM (inactive).
As for `N#Cc1cc([N+](=O)[O-])ccc1NC(=O)C(=O)C(C(=O)c1ccc2ccccc2c1)C1OCc2ccccc21` (configuration not stated), the GI50 is 6.28 µM (inactive) in experiment [1]; 10.7 µM (inactive) in experiment [2]; 14.1 µM (inactive) in [3]; 9.4 µM (inactive) in experiment [4]; 5.01 µM (inactive) in experiment [5]; 7.8 µM in experiment [6]. Also, the GI50 in [7] was 12.2 µM (inactive); in experiment [8] it was 17.6 µM (inactive); in experiment [9], 6.25 µM (inactive); in experiment [10], 15.1 µM (inactive); in experiment [11], 1.68 µM (inactive); in [12], 3.06 µM (inactive). In addition, the GI50 is 14.2 µM (inactive) in experiment [13], 5.43 µM (inactive) in experiment [14] and 9.06 µM (inactive) in experiment [15].
In the case of `Cc1cc(C)nc(NS(=O)(=O)c2ccc(Nc3c4ccccc4nc4c(C(=O)N5CCN(CCO)CC5)ccc(Cl)c34)cc2)n1`, the GI50 in experiment [1] is 68.1 µM (inactive); in experiment [2], > 100 µM (inactive); in experiment [4], 63 µM (inactive); in experiment [5], 50.9 µM (inactive); in experiment [6], 52.2 µM; in [7], 34.4 µM (inactive). Also, the GI50 is > 100 µM (inactive) in [8]; 38.5 µM (inactive) in experiment [9]; 34 µM (inactive) in experiment [10]; > 100 µM (inactive) in [11]; > 100 µM (inactive) in experiment [12]; > 100 µM (inactive) in experiment [13]. The GI50 in [14] was > 100 µM (inactive); in [15], 42.8 µM (inactive).
Consider `CC(C)c1cc2c(O)c(c1)Cc1cc(C(C)C)cc(c1O)Cc1cc(C(C)C)cc(c1O)Cc1cc(C(C)C)cc(c1O)Cc1cc(C(C)C)cc(c1O)Cc1cc(C(C)C)cc(c1O)C2`, for which the GI50 in experiment [1] is > 100 µM (inactive); in experiment [2] it was > 100 µM (inactive); in [3], > 100 µM (inactive); in experiment [4], > 100 µM (inactive); in [5], > 100 µM (inactive); in experiment [6], over 100 µM. Further, the GI50 in experiment [7], in experiment [8], in experiment [9], in [10], in [12] and in [13] was > 100 µM (inactive) in each case. Besides, the GI50 in experiment [14] and in [15] was > 100 µM (inactive) in each case.
On to `C/C(=N\NS(=O)(=O)c1ccc(C)cc1)c1c(O)cc(C)oc1=O`, for which the GI50 was > 100 µM (inactive) in experiment [1]; > 100 µM (inactive) in experiment [2]; > 100 µM (inactive) in [3]; > 100 µM (inactive) in experiment [5]; over 100 µM in experiment [6]; > 100 µM (inactive) in experiment [7]. In addition, the GI50 in experiment [8], in experiment [9], in [10], in experiment [11], in experiment [14] and in experiment [15] was > 100 µM (inactive) each time.

Values taken from ChEMBL document CHEMBL1201862, “PubChem BioAssay data set” (2004).
